PubChem BioAssay (NCI)
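The compound was tested at five concentrations on cells cultured in 96-well plates, with a 48-hour exposure period. TGI is the concentration that stops growth completely.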

What was measured:
Experiment in all cases: NCI tumour cell line growth inhibition, 48 h
NCI-H522 lung = tested on: NCI-H522 lung
MOLT-4 leukemia = tested on: MOLT-4 leukemia
HL-60(TB) leukemia = tested on: HL-60(TB) leukemia
RXF 393 renal = tested on: RXF 393 renal
HT29 colon = tested on: HT29 colon
SK-MEL-2 melanoma = tested on: SK-MEL-2 melanoma
SF-268 CNS = tested on: SF-268 CNS
SR leukemia = tested on: SR leukemia
COLO 205 colon = tested on: COLO 205 colon
RPMI-8226 leukemia = tested on: RPMI-8226 leukemia
HCC-2998 colon = tested on: HCC-2998 colon
OVCAR-5 ovarian = tested on: OVCAR-5 ovarian
OVCAR-3 ovarian = tested on: OVCAR-3 ovarian
HOP-18 NSCLC = tested on: HOP-18 NSCLC
KM20L2 colon = tested on: KM20L2 colon
SN12C renal = tested on: SN12C renal
KM12 colon = tested on: KM12 colon
SF-295 CNS = tested on: SF-295 CNS
SK-MEL-5 melanoma = tested on: SK-MEL-5 melanoma
A498 renal = tested on: A498 renal
U251 CNS = tested on: U251 CNS
EKVX NSCLC = tested on: EKVX NSCLC
UACC-257 melanoma = tested on: UACC-257 melanoma
SNB-19 CNS = tested on: SNB-19 CNS
A549 NSCLC = tested on: A549 NSCLC
SNB-78 CNS = tested on: SNB-78 CNS
NCI-H460 lung = tested on: NCI-H460 lung
OVCAR-8 ovarian = tested on: OVCAR-8 ovarian
SK-OV-3 ovarian = tested on: SK-OV-3 ovarian
ACHN renal = tested on: ACHN renal
MALME-3M melanoma = tested on: MALME-3M melanoma
M14 melanoma = tested on: M14 melanoma
CCRF-CEM leukemia = tested on: CCRF-CEM leukemia
HCT-116 colon = tested on: HCT-116 colon
NCI-H226 lung = tested on: NCI-H226 lung
TK-10 renal = tested on: TK-10 renal
IGROV1 ovarian = tested on: IGROV1 ovarian
NCI-H23 lung = tested on: NCI-H23 lung
HOP-92 NSCLC = tested on: HOP-92 NSCLC
SK-MEL-28 melanoma = tested on: SK-MEL-28 melanoma
LXFL 529 NSCLC = tested on: LXFL 529 NSCLC
HOP-62 NSCLC = tested on: HOP-62 NSCLC
CAKI-1 renal = tested on: CAKI-1 renal
LOX IMVI melanoma = tested on: LOX IMVI melanoma
UO-31 renal = tested on: UO-31 renal
K-562 leukemia = tested on: K-562 leukemia
OVCAR-4 ovarian = tested on: OVCAR-4 ovarian
HCT-15 colon = tested on: HCT-15 colon
786-0 renal = tested on: 786-0 renal
SF-539 CNS = tested on: SF-539 CNS
M19-MEL melanoma = tested on: M19-MEL melanoma
DMS 273 small cell lung = tested on: DMS 273 small cell lung
UACC-62 melanoma = tested on: UACC-62 melanoma
SNB-75 CNS = tested on: SNB-75 CNS
SW-620 colon = tested on: SW-620 colon
DLD-1 colon = tested on: DLD-1 colon
DMS 114 small cell lung = tested on: DMS 114 small cell lung

Which TGI (NCI-H522 lung) does the source give for COc1ccc2c(c1)[n+](=O)c(C(=O)CC(=O)C(=O)Nc1cccc(Cl)c1C)c(C)n2[O-] here?
Its TGI is 58 µM.

And the TGI (MOLT-4 leukemia)?
Its TGI is over 100 µM.

And the TGI (HL-60(TB) leukemia)?
The TGI was over 100 µM.

What about the TGI (RXF 393 renal) of the same compound?
Its TGI is over 100 µM.

And the TGI (HT29 colon)?
Its TGI is over 100 µM.

What about the TGI (SK-MEL-2 melanoma) of the same compound?
Its TGI is over 100 µM.

What about the TGI (SF-268 CNS) of the same compound?
The TGI was over 100 µM.

What about the TGI (SR leukemia) of the same compound?
The TGI was over 100 µM.

And the TGI (COLO 205 colon)?
The TGI was over 100 µM.

And the TGI (RPMI-8226 leukemia)?
The TGI was over 100 µM.

What about the TGI (HCC-2998 colon) of the same compound?
The TGI was over 100 µM.

And the TGI (OVCAR-5 ovarian)?
Its TGI is over 100 µM.

What about the TGI (OVCAR-3 ovarian) of the same compound?
Its TGI is 94.7 µM.

And the TGI (HOP-18 NSCLC)?
Its TGI is over 100 µM.

What about the TGI (KM20L2 colon) of the same compound?
Its TGI is over 100 µM.

And the TGI (SN12C renal)?
The TGI was over 100 µM.

What about the TGI (KM12 colon) of the same compound?
Its TGI is over 100 µM.

What about the TGI (SF-295 CNS) of the same compound?
Its TGI is over 100 µM.

And the TGI (SK-MEL-5 melanoma)?
Its TGI is over 100 µM.

What about the TGI (A498 renal) of the same compound?
Its TGI is over 100 µM.

What about the TGI (U251 CNS) of the same compound?
The TGI was over 100 µM.

And the TGI (EKVX NSCLC)?
The TGI was over 100 µM.

What about the TGI (UACC-257 melanoma) of the same compound?
Its TGI is over 100 µM.

And the TGI (SNB-19 CNS)?
The TGI was over 100 µM.

What about the TGI (A549 NSCLC) of the same compound?
The TGI was over 100 µM.

And the TGI (SNB-78 CNS)?
Its TGI is over 100 µM.

And the TGI (NCI-H460 lung)?
The TGI was over 100 µM.

What about the TGI (OVCAR-8 ovarian) of the same compound?
The TGI was over 100 µM.

What about the TGI (SK-OV-3 ovarian) of the same compound?
The TGI was over 100 µM.

What about the TGI (ACHN renal) of the same compound?
Its TGI is over 100 µM.

And the TGI (MALME-3M melanoma)?
Its TGI is over 100 µM.

And the TGI (M14 melanoma)?
The TGI was over 100 µM.

What about the TGI (CCRF-CEM leukemia) of the same compound?
Its TGI is 71.2 µM.

And the TGI (HCT-116 colon)?
Its TGI is over 100 µM.

What about the TGI (NCI-H226 lung) of the same compound?
Its TGI is over 100 µM.

And the TGI (TK-10 renal)?
The TGI was over 100 µM.

And the TGI (IGROV1 ovarian)?
Its TGI is over 100 µM.

And the TGI (NCI-H23 lung)?
The TGI was over 100 µM.

What about the TGI (HOP-92 NSCLC) of the same compound?
Its TGI is over 100 µM.

And the TGI (SK-MEL-28 melanoma)?
Its TGI is over 100 µM.

What about the TGI (LXFL 529 NSCLC) of the same compound?
The TGI was over 100 µM.

And the TGI (HOP-62 NSCLC)?
Its TGI is over 100 µM.

And the TGI (CAKI-1 renal)?
The TGI was over 100 µM.

What about the TGI (LOX IMVI melanoma) of the same compound?
Its TGI is over 100 µM.

And the TGI (UO-31 renal)?
Its TGI is over 100 µM.

What about the TGI (K-562 leukemia) of the same compound?
Its TGI is over 100 µM.

And the TGI (OVCAR-4 ovarian)?
The TGI was over 100 µM.

And the TGI (HCT-15 colon)?
The TGI was over 100 µM.

What about the TGI (786-0 renal) of the same compound?
Its TGI is over 100 µM.

And the TGI (SF-539 CNS)?
The TGI was over 100 µM.

What about the TGI (M19-MEL melanoma) of the same compound?
The TGI was over 100 µM.

What about the TGI (DMS 273 small cell lung) of the same compound?
Its TGI is over 100 µM.

What about the TGI (UACC-62 melanoma) of the same compound?
Its TGI is over 100 µM.

What about the TGI (SNB-75 CNS) of the same compound?
The TGI was over 100 µM.

What about the TGI (SW-620 colon) of the same compound?
The TGI was over 100 µM.

For O=[N+]([O-])c1ccc(C2CC(c3ccc(NCc4nc5ccccc5[nH]4)cc3)=NO2)cc1 (configuration not stated), which TGI (NCI-H522 lung) is on record?
The TGI was over 100 µM.

What about the TGI (MOLT-4 leukemia) of the same compound?
Its TGI is over 100 µM.

What about the TGI (HL-60(TB) leukemia) of the same compound?
Its TGI is over 100 µM.

What about the TGI (RXF 393 renal) of the same compound?
The TGI was over 100 µM.

What about the TGI (HT29 colon) of the same compound?
The TGI was over 100 µM.

And the TGI (SK-MEL-2 melanoma)?
Its TGI is over 100 µM.

And the TGI (SF-268 CNS)?
Its TGI is over 100 µM.

And the TGI (SR leukemia)?
The TGI was over 100 µM.

And the TGI (COLO 205 colon)?
Its TGI is over 100 µM.

What about the TGI (RPMI-8226 leukemia) of the same compound?
Its TGI is over 100 µM.

What about the TGI (HCC-2998 colon) of the same compound?
Its TGI is over 100 µM.

What about the TGI (OVCAR-5 ovarian) of the same compound?
Its TGI is over 100 µM.

And the TGI (OVCAR-3 ovarian)?
The TGI was 57.4 µM.

What about the TGI (HOP-18 NSCLC) of the same compound?
The TGI was over 100 µM.

And the TGI (SN12C renal)?
Its TGI is over 100 µM.

What about the TGI (KM12 colon) of the same compound?
The TGI was over 100 µM.

What about the TGI (SF-295 CNS) of the same compound?
Its TGI is over 100 µM.

What about the TGI (DLD-1 colon) of the same compound?
Its TGI is over 100 µM.

And the TGI (SK-MEL-5 melanoma)?
The TGI was 32.5 µM.

What about the TGI (A498 renal) of the same compound?
The TGI was 73.5 µM.

What about the TGI (U251 CNS) of the same compound?
The TGI was over 100 µM.

What about the TGI (SNB-19 CNS) of the same compound?
The TGI was over 100 µM.

What about the TGI (A549 NSCLC) of the same compound?
Its TGI is over 100 µM.

And the TGI (NCI-H460 lung)?
Its TGI is over 100 µM.

What about the TGI (OVCAR-8 ovarian) of the same compound?
The TGI was over 100 µM.

What about the TGI (SK-OV-3 ovarian) of the same compound?
The TGI was over 100 µM.

What about the TGI (ACHN renal) of the same compound?
Its TGI is over 100 µM.

And the TGI (MALME-3M melanoma)?
Its TGI is over 100 µM.

What about the TGI (M14 melanoma) of the same compound?
Its TGI is over 100 µM.

And the TGI (CCRF-CEM leukemia)?
Its TGI is over 100 µM.

What about the TGI (HCT-116 colon) of the same compound?
Its TGI is over 100 µM.

And the TGI (TK-10 renal)?
The TGI was over 100 µM.

What about the TGI (IGROV1 ovarian) of the same compound?
Its TGI is over 100 µM.

And the TGI (NCI-H23 lung)?
The TGI was over 100 µM.

What about the TGI (HOP-92 NSCLC) of the same compound?
Its TGI is over 100 µM.

And the TGI (SK-MEL-28 melanoma)?
Its TGI is over 100 µM.

What about the TGI (LXFL 529 NSCLC) of the same compound?
The TGI was 97.9 µM.

And the TGI (HOP-62 NSCLC)?
Its TGI is over 100 µM.

What about the TGI (DMS 114 small cell lung) of the same compound?
The TGI was over 100 µM.

And the TGI (CAKI-1 renal)?
Its TGI is over 100 µM.

And the TGI (LOX IMVI melanoma)?
The TGI was over 100 µM.

What about the TGI (UO-31 renal) of the same compound?
The TGI was over 100 µM.

And the TGI (K-562 leukemia)?
Its TGI is over 100 µM.

And the TGI (OVCAR-4 ovarian)?
Its TGI is over 100 µM.

And the TGI (HCT-15 colon)?
Its TGI is over 100 µM.

What about the TGI (786-0 renal) of the same compound?
The TGI was over 100 µM.

And the TGI (SF-539 CNS)?
The TGI was over 100 µM.

And the TGI (M19-MEL melanoma)?
The TGI was over 100 µM.

What about the TGI (DMS 273 small cell lung) of the same compound?
Its TGI is over 100 µM.

And the TGI (UACC-62 melanoma)?
The TGI was over 100 µM.

And the TGI (SNB-75 CNS)?
Its TGI is over 100 µM.

What about the TGI (SW-620 colon) of the same compound?
Its TGI is over 100 µM.
